Assay results taken from paper PMC10918830, “Biosynthesis of Cytidine Diphosphate-6-D-Glucitol for the Capsular Polysaccharides of Campylobacter jejuni” (Biochemistry, 2024).

What was measured:
[1] = target: T1, NAD(P)-dependent oxidoreductase HS5.17 (CDP-6-D-glucitol synthase) (Campylobacter jejuni, UniProt A0A0U3AP28); experiment: X-ray crystal structure, […] Å; assay type: binding; conditions: tag-free enzyme; ternary complex with NADP(H); pH 9.0
T1 construct: full-length, N-terminal His6 tag (pET-28a), E. coli expression; tag removed by TEV for the 8V4G crystals, tag kept for 8V4H; dimer

[2] = target: T1, NAD(P)-dependent oxidoreductase HS5.17 (CDP-6-D-glucitol synthase); experiment: X-ray crystal structure, […] Å; assay type: binding; conditions: tagged enzyme; crystallized with NADP(H), which was not observed; pH 8.0
[3] = target: the molecule itself; experiment: crystal structure; tag-free enzyme crystallized with 5 mM CDP and 5 mM NADP(H), PEG 8000, hexyleneglycol, 100 mM CHES pH 9.0; 2.0 Å; dimer in the asymmetric unit
[4] = target: the molecule itself; experiment: crystal structure; tagged enzyme crystallized with 5 mM CDP-6-D-glucitol and 5 mM NADP(H), PEG 8000, 200 mM LiCl, 100 mM HEPPS pH 8.0; 2.2 Å; dimer in the asymmetric unit

`Nc1ccn([C@@H]2O[C@H](COP(=O)(O)OP(=O)(O)O)[C@@H](O)[C@H]2O)c(=O)n1` [CDP] was tested, and the “X-ray crystal structure, 2.0 Å” value [1] was “The first structure determined of the oxidoreductase was that in complex with NADP(H) and CDP”.

For `Nc1ccn([C@@H]2O[C@H](COP(=O)(O)OP(=O)(O)OC[C@@H](O)[C@@H](O)[C@H](O)[C@@H](O)CO)[C@@H](O)[C@H]2O)c(=O)n1` [compound 3, CDP-6-D-glucitol], the “X-ray crystal structure, 2.2 Å” value [2] was “The electron density was unambiguous for the CDP-6-D-glucitol ligands in both subunits”.

B1: NAD(P)-dependent oxidoreductase (HS5.17) from C. jejuni serotype HS:5, tag-free (enzyme, Campylobacter jejuni serotype HS:5)
chain: MNEILKKRLKLLKNNFGTHINKIANKKILITGANGYIGSILTLILHGNAKLYCLVRNKDKMIDRFQEICGDIDKIDIYEDLYKIQDKIDIVIHCAAPTQSDFFIENPIDTVDIIYTNTKNILDFSKKNNVEKIIFLSTMEIYGDVIGDNIVEDDIGKFSVTNIRNSYPLAKQISEFMVHSYSKKYSLSTAIVRLTQAIGPTAQINDNRVYMDFIRSAIKKSQITLFTKGETKREYIDVFDVATAIIFVMCEKKMFEIYNISNPNIFISIYDLAKTISAKLNVQVVFDLQRDTSQYLPSFSRRLNSKKIYQLGWTPLFDLNQSLDDMIKYIKEVNE
notes: putative NAD(P)-oxidoreductase HS5.17 of Campylobacter jejuni serotype HS:5 (ATCC 43433), UniProt A0A0U3AP28; gene synthesized and codon-optimized, in pET-28a(+) between NdeI and XhoI; electron density seen from Met 1 to Asn 334; His 0 left over from the purification tag; Crystallized with CDP and NADP(H) (PDB 8V4G); also called CDP-6-D-glucitol synthase; nucleotide sugar reductase; source: E. …
For B1, the “stoichiometry N” value [3] was 2.

B2: NAD(P)-dependent oxidoreductase (HS5.17) from C. jejuni serotype HS:5, N-terminally histidine-tagged (enzyme, Campylobacter jejuni serotype HS:5)
chain: B1 chain
notes: putative NAD(P)-oxidoreductase HS5.17 of Campylobacter jejuni serotype HS:5 (ATCC 43433), UniProt A0A0U3AP28; gene synthesized and codon-optimized, in pET-28a(+) between NdeI and XhoI; electron density continuous from Met 1 to Asn 334, tag seen from Glu (-7) to Met 1 in Subunit B; Crystallized with CDP-6-D-glucitol (PDB 8V4H); also called CDP-6-D-glucitol synthase; nucleotide sugar reductase; …
With B2 the “stoichiometry N” value [4] was 2.
